Source: patent US20250270191A1, “QUINOLONE BCL6 BIFUNCTIONAL DEGRADERS” (Treeline Biosciences, Inc., priority 2022, published 2025)

These molecules were tested against T1, Human BCL6 protein (N-terminal HiBiT tagged BCL6 in HT1080 cells) (Homo sapiens, UniProt P41182+Q96SW2) (assay: HiBiT based BCL6 degradation assay). Settings: HT1080 cells expressing N-terminal HiBiT tagged BCL6; 5 hours incubation; BCL6 degradation normalized with DMSO control.
T1 construct: Human BCL6 protein coding open reading frame; expressed in transfected cells; host or cells: HT1080 (ATCC CCL-121), stably transduced with lentivirus pLV-UBC-N-HiBiT-BCL6-PGK-puro
Type: cell-based
How it was run: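 HT1080 cells stably expressing N-terminal HiBiT-BCL6 were treated with compound dilution series for 5 h at 37° C. in RPMI 1640 with 10% FBS. HiBiT lytic luminescence read after 15 min; degradation normalized to DMSO, with curves fitted by four-parameter logistic model.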

SMILES | Ymin (5 hr)
CNC(=O)COc1cc2cc(Nc3nc(N4CCN(C(C)(C)C5CCN(c6ccc7c(C8CCC(=O)NC8=O)nn(C)c7c6)CC5)CC4)ncc3Cl)ccc2n(C)c1=O (stereo not shown) [Compound 340, 2-((6-((5-chloro-2-(4-(2-(1-(3-(2,6-dioxopiperidin-3-yl)-1-methyl-1H-indazol-6-yl)piperidin-4-yl)propan-2-yl)piperazin-1-yl)pyrimidin-4-yl)amino)-1-methyl-2-oxo-1,2-dihydroquinolin-3-yl)oxy)-N-methylacetamide] | +++ (25% < Ymin ≤ 50%)
CNC(=O)COc1cc2cc(Nc3nc(N4CCN(CC5CCN(C(=O)c6ccc7c(C8CCC(=O)NC8=O)nn(C)c7c6)CC5)CC4)ncc3Cl)ccc2n(C)c1=O (stereo not shown) [Compound 321, 2-((6-((5-chloro-2-(4-((1-(3-(2,6-dioxopiperidin-3-yl)-1-methyl-1H-indazole-6-carbonyl)piperidin-4-yl)methyl)piperazin-1-yl)pyrimidin-4-yl)amino)-1-methyl-2-oxo-1,2-dihydroquinolin-3-yl)oxy)-N-methylacetamide] | +++ (25% < Ymin ≤ 50%)
CNC(=O)COc1cc2cc(Nc3nc(NC[C@@H]4CCCN(c5ccc6c(C7CCC(=O)NC7=O)nn(C)c6c5)C4)ncc3Cl)ccc2n(C)c1=O (stereo partly drawn) [Compound 295b, 2-((6-((5-chloro-2-((((3S)-1-(3-(2,6-dioxopiperidin-3-yl)-1-methyl-1H-indazol-6-yl)piperidin-3-yl)methyl)amino)pyrimidin-4-yl)amino)-1-methyl-2-oxo-1,2-dihydroquinolin-3-yl)oxy)-N-methylacetamide] | ++ (50% < Ymin ≤ 70%)
CNC(=O)COc1cc2cc(Nc3nc(N4CCN([C@H](C)C5CCN(c6cccc7c(C8CCC(=O)NC8=O)nn(C)c67)CC5)CC4)ncc3Cl)ccc2n(C)c1=O (single isomer, unassigned) [Compound 307b] | +++ (25% < Ymin ≤ 50%)
CNC(=O)COc1cc2cc(Nc3nc(N4CCN(C[C@H]5CCN(c6cccc7c(C8CCC(=O)NC8=O)nn(C)c67)C5)CC4)ncc3Cl)ccc2n(C)c1=O (stereo partly drawn) [Compound 305a, 2-((6-((5-chloro-2-(4-(((3R)-1-(3-(2,6-dioxopiperidin-3-yl)-1-methyl-1H-indazol-7-yl)pyrrolidin-3-yl)methyl)piperazin-1-yl)pyrimidin-4-yl)amino)-1-methyl-2-oxo-1,2-dihydroquinolin-3-yl)oxy)-N-methylacetamide] | +++ (25% < Ymin ≤ 50%)
CNC(=O)COc1cc2cc(Nc3nc(N4CCO[C@H](COc5ccc6c(C7CCC(=O)NC7=O)nn(C)c6c5)C4)ncc3Cl)ccc2n(C)c1=O (stereo partly drawn) [Compound 317a, 2-((6-((5-chloro-2-((2S)-2-(((3-(2,6-dioxopiperidin-3-yl)-1-methyl-1H-indazol-6-yl)oxy)methyl)morpholino)pyrimidin-4-yl)amino)-1-methyl-2-oxo-1,2-dihydroquinolin-3-yl)oxy)-N-methylacetamide] | +++ (25% < Ymin ≤ 50%)
CNC(=O)COc1cc2cc(Nc3nc(N4CC5CCC(Nc6ccc7c(C8CCC(=O)NC8=O)nn(C)c7c6)CC5C4)ncc3Cl)ccc2n(C)c1=O (stereo not shown) [Compound 338, 2-((6-((5-chloro-2-(5-((3-(2,6-dioxopiperidin-3-yl)-1-methyl-1H-indazol-6-yl)amino)octahydro-2H-isoindol-2-yl)pyrimidin-4-yl)amino)-1-methyl-2-oxo-1,2-dihydroquinolin-3-yl)oxy)-N-methylacetamide] | ++ (50% < Ymin ≤ 70%)
CNC(=O)COc1cc2cc(Nc3nc(N4CCC[C@H](CCNc5ccc6c(C7CCC(=O)NC7=O)nn(C)c6c5)C4)ncc3Cl)ccc2n(C)c1=O (single isomer, unassigned) [Compound 290a] | ++ (50% < Ymin ≤ 70%)
CNC(=O)COc1cc2cc(Nc3nc(N4CCC[C@@H]4CNc4cccc(C5CCC(=O)NC5=O)c4)ncc3Cl)ccc2n(C)c1=O (stereo partly drawn) [Compound 260a, 2-((6-((5-chloro-2-((2R)-2-(((3-(2,6-dioxopiperidin-3-yl)phenyl)amino)methyl)pyrrolidin-1-yl)pyrimidin-4-yl)amino)-1-methyl-2-oxo-1,2-dihydroquinolin-3-yl)oxy)-N-methylacetamide] | ++ (50% < Ymin ≤ 70%)
CNC(=O)COc1cc2cc(Nc3nc(NC[C@H]4CC[C@H](Nc5cccc6c(C7CCC(=O)NC7=O)nn(C)c56)CC4)ncc3Cl)ccc2n(C)c1=O (stereo partly shown) [Compound 304b, 2-((6-((5-chloro-2-((((1r,4r)-4-((3-(2,6-dioxopiperidin-3-yl)-1-methyl-1H-indazol-7-yl)amino)cyclohexyl)methyl)amino)pyrimidin-4-yl)amino)-1-methyl-2-oxo-1,2-dihydroquinolin-3-yl)oxy)-N-methylacetamide] | ++ (50% < Ymin ≤ 70%)
CNC(=O)COc1cc2cc(Nc3nc(N4CCC[C@H](CNc5ccc(C6CCC(=O)NC6=O)cc5)C4)ncc3Cl)ccc2n(C)c1=O (stereo partly drawn) [Compound 106a, 2-((6-((5-chloro-2-((3R)-3-(((4-(2,6-dioxopiperidin-3-yl)phenyl)amino)methyl)piperidin-1-yl)pyrimidin-4-yl)amino)-1-methyl-2-oxo-1,2-dihydroquinolin-3-yl)oxy)-N-methylacetamide] | ++ (50% < Ymin ≤ 70%)
CNC(=O)COc1cc2cc(Nc3nc(N4CCC[C@@H](CCNc5cccc6c(C7CCC(=O)NC7=O)nn(C)c56)C4)ncc3Cl)ccc2n(C)c1=O (stereo in doubt) [Compound 294a, rel-2-((6-((5-chloro-2-((3S)-3-(2-((3-(2,6-dioxopiperidin-3-yl)-1-methyl-1H-indazol-7-yl)amino)ethyl)piperidin-1-yl)pyrimidin-4-yl)amino)-1-methyl-2-oxo-1,2-dihydroquinolin-3-yl)oxy)-N-methylacetamide] | ++ (50% < Ymin ≤ 70%)
CNC(=O)COc1cc2cc(Nc3nc(N4CCC(C(=O)N5CCN(c6ccc7c(C8CCC(=O)NC8=O)nn(C)c7c6)CC5)CC4)ncc3Cl)ccc2n(C)c1=O (stereo not shown) [Compound 328, 2-((6-((5-chloro-2-(4-(4-(3-(2,6-dioxopiperidin-3-yl)-1-methyl-1H-indazol-6-yl)piperazine-1-carbonyl)piperidin-1-yl)pyrimidin-4-yl)amino)-1-methyl-2-oxo-1,2-dihydroquinolin-3-yl)oxy)-N-methylacetamide] | ++++ (Ymin ≤ 25%)
CNC(=O)COc1cc2cc(Nc3nc(N4CCN(C(=O)C5CCN(c6cccc7c(C8CCC(=O)NC8=O)nn(C)c67)CC5)CC4)ncc3Cl)ccc2n(C)c1=O (stereo not shown) [Compound 345, 2-((6-((5-chloro-2-(4-(1-(3-(2,6-dioxopiperidin-3-yl)-1-methyl-1H-indazol-7-yl)piperidine-4-carbonyl)piperazin-1-yl)pyrimidin-4-yl)amino)-1-methyl-2-oxo-1,2-dihydroquinolin-3-yl)oxy)-N-methylacetamide] | ++++ (Ymin ≤ 25%)
CNC(=O)COc1cc2cc(Nc3nc(N4CCC(CCNc5cccc(C6CCC(=O)NC6=O)c5)CC4)ncc3Cl)ccc2n(C)c1=O (stereo not shown) [Compound 263, 2-((6-((5-chloro-2-(4-(2-((3-(2,6-dioxopiperidin-3-yl)phenyl)amino)ethyl)piperidin-1-yl)pyrimidin-4-yl)amino)-1-methyl-2-oxo-1,2-dihydroquinolin-3-yl)oxy)-N-methylacetamide] | ++ (50% < Ymin ≤ 70%)
CNC(=O)COc1cc2cc(Nc3nc(NC[C@H]4CC[C@@H](Nc5ccc6c(C7CCC(=O)NC7=O)nn(C)c6c5)CC4)ncc3Cl)ccc2n(C)c1=O (stereo partly shown) [Compound 289a, 2-((6-((5-chloro-2-((((1s,4s)-4-((3-(2,6-dioxopiperidin-3-yl)-1-methyl-1H-indazol-6-yl)amino)cyclohexyl)methyl)amino)pyrimidin-4-yl)amino)-1-methyl-2-oxo-1,2-dihydroquinolin-3-yl)oxy)-N-methylacetamide] | + (Ymin > 70%)
CC(=O)COc1cc2cc(Nc3nc(N4CCN(CC5CCN(c6cccc7c(C8CCC(=O)NC8=O)nn(C)c67)CC5)[C@@H](C)C4)ncc3Cl)ccc2n(C)c1=O (stereo partly drawn) [Compound 347a, 3-(7-(4-(((S)-4-(5-chloro-4-((1-methyl-2-oxo-3-(2-oxopropoxy)-1,2-dihydroquinolin-6-yl)amino)pyrimidin-2-yl)-2-methylpiperazin-1-yl)methyl)piperidin-1-yl)-1-methyl-1H-indazol-3-yl)piperidine-2,6-dione] | ++++ (Ymin ≤ 25%)
CNC(=O)COc1cc2cc(Nc3nc(N4CCC5(CCC(Nc6cccc7c(C8CCC(=O)NC8=O)nn(C)c67)CC5)C4)ncc3Cl)ccc2n(C)c1=O (stereo not shown) [Compound 344, 2-((6-((5-chloro-2-(8-((3-(2,6-dioxopiperidin-3-yl)-1-methyl-1H-indazol-7-yl)amino)-2-azaspiro[4.5]decan-2-yl)pyrimidin-4-yl)amino)-1-methyl-2-oxo-1,2-dihydroquinolin-3-yl)oxy)-N-methylacetamide] | ++ (50% < Ymin ≤ 70%)
CNC(=O)COc1cc2cc(Nc3nc(N4CCCC5(CN(c6ccc7c(C8CCC(=O)NC8=O)nn(C)c7c6)C5)C4)ncc3Cl)ccc2n(C)c1=O (stereo not shown) [Compound 329, 2-((6-((5-chloro-2-(2-(3-(2,6-dioxopiperidin-3-yl)-1-methyl-1H-indazol-6-yl)-2,6-diazaspiro[3.5]nonan-6-yl)pyrimidin-4-yl)amino)-1-methyl-2-oxo-1,2-dihydroquinolin-3-yl)oxy)-N-methylacetamide] | ++ (50% < Ymin ≤ 70%)
